From patent publication EP0920857B1, “Oral composition for the treatment of halitosis” (DENTAID, S.A., priority 1997, dated 1999)
Where two headings read alike, the source gives them in different places.

Assays:
Format in all cases: cell-based
A.actinomycetemcomitans = experiment: minimum inhibitory concentration (MIC), method of diffusion in agar
Excerpt: (§1) The anti-microbial activity of a certain number of active ingredients was obtained by study of the minimum inhibitory concentrations (MIC) of the respective agents (by the method of diffusion in agar) against bacteria representing periodontal disease.

P.gingivalis = experiment: as above
Excerpt: as §1

P.intermedia = experiment: as above
Excerpt: as §1

[1] = tested on: mixture of periodontal bacteria; experiment: short interval killing test (SIKT), total surviving flora
Excerpt: (§2) The anti-microbial activity of the mouth rinse evaluated "in vitro" by mortality studies over short intervals of time (short interval killing test, SIKT) against a mixture of periodontal bacteria containing between 1.0*10^5 and 1.0*10^7 CFU ml of each strain. The total counts obtained in the surviving flora and those pertaining to each strain after one minute of contact are summarised in Tables 3 and 4. TABLA 3

F. nucleatum = experiment: short interval killing test (SIKT), count per strain
Excerpt: as §2

P. gingivalis = experiment: as above
Excerpt: as §2

P. intermedia = experiment: as above
Excerpt: as §2

[2] = tested on: Peptostreptococcus micros; experiment: as above
Excerpt: as §2

[3] = one minute of contact, 1.0*10^5 to 1.0*10^7 CFU ml of each strain, PBS = 100%
[4] = F. nucleatum, one minute of contact, PBS = 100%
[5] = P. gingivalis, one minute of contact, PBS = 100%
[6] = P. intermedia, one minute of contact, PBS = 100%
[7] = Peptostreptococcus micros, one minute of contact, PBS = 100%

SMILES: O=S(=O)([O-])[O-].[Zn+2] [Zn^++, sulphate]
- Minimum inhibitory concentration (A.actinomycetemcomitans): 0.1%
- Minimum inhibitory concentration (%) (P.gingivalis): 0.5%
- Minimum inhibitory concentration (MIC, % concentration) (P.intermedia): 0.5%
- Total CFU/ml recovered (%) at 1 minute [1, 3]: 47.65%
- CFU/ml recovered from each strain (%) (F. nucleatum; [4]): 40.9%
- CFU/ml recovered from each strain (%) (P. gingivalis; [5]): 33.9%
- CFU/ml recovered from each strain (%) (P. intermedia; [6]): 0.56%
- CFU/ml recovered from each strain (%) [2, 7]: 54.5%

SMILES: Oc1cc(Cl)ccc1Oc1ccc(Cl)cc1Cl [Triclosan, 5-chloro-2-(2,4-dichlorophenoxy)-phenol]
- Minimum inhibitory concentration (A.actinomycetemcomitans): 0.0006%
- Minimum inhibitory concentration (%) (P.gingivalis): 0.004%
- Minimum inhibitory concentration (MIC, % concentration) (P.intermedia): 0.009%

SMILES: CCCCC(CC)CN1CN(CC(CC)CCCC)CC(C)(N)C1 (centres unmarked) [Hexetidine]
- Minimum inhibitory concentration (A.actinomycetemcomitans): 0.09%
- Minimum inhibitory concentration (%) (P.gingivalis): 0.001%
- Minimum inhibitory concentration (MIC, % concentration) (P.intermedia): 0.001%

SMILES: CCCCCCCCCCCCCCCC[n+]1ccccc1 [CPC, cetylpyridinium chloride]
- Total CFU/ml recovered (%) at 1 minute [1]: 0.04%
- CFU/ml recovered from each strain (%) (F. nucleatum): 0.05%
- CFU/ml recovered from each strain (%) (P. gingivalis): <0.01%
- CFU/ml recovered from each strain (%) (P. intermedia): 0.01%
- CFU/ml recovered from each strain (%) [2]: 0.03%

SMILES: N=C(NCCCCCCNC(=N)NC(=N)Nc1ccc(Cl)cc1)NC(=N)Nc1ccc(Cl)cc1.O=C(O)[C@H](O)[C@@H](O)[C@H](O)[C@H](O)CO.O=C(O)[C@H](O)[C@@H](O)[C@H](O)[C@H](O)CO [CHX, 1,6-bis (N^5-p-chlorophenyl-N^1-diguanido)hexane digluconate]
- Total CFU/ml recovered (%) at 1 minute [1, 3]: 25.55%
- CFU/ml recovered from each strain (%) (F. nucleatum; [4]): 0.87%
- CFU/ml recovered from each strain (%) (P. gingivalis; [5]): <0.81%
- CFU/ml recovered from each strain (%) (P. intermedia; [6]): <0.56%
- CFU/ml recovered from each strain (%) [2, 7]: 82.12%

SMILES: O=C([O-])[C@H](O)[C@@H](O)[C@H](O)[C@H](O)CO.O=C([O-])[C@H](O)[C@@H](O)[C@H](O)[C@H](O)CO.[Cu+2] [Cu^++ gluconate]
- Minimum inhibitory concentration (%) (P.gingivalis): 0.06%
- Minimum inhibitory concentration (MIC, % concentration) (P.intermedia): 0.004%

SMILES: [H]/N=C(\N/C(=N/[H])NCCCCCCNC(=N)NC(=N)Nc1ccc(Cl)cc1)Nc1ccc(Cl)cc1 [Chlorhexidine]
- Minimum inhibitory concentration (A.actinomycetemcomitans): 0.004%
- Minimum inhibitory concentration (%) (P.gingivalis): 0.002%
- Minimum inhibitory concentration (MIC, % concentration) (P.intermedia): 0.0009%
